{"source": "ChEMBL document CHEMBL4411307", "about": "“N,N'-diaryl-bishydrazones in a biphenyl platform: Broad spectrum antifungal agents” (Eur J Med Chem, 2019)", "key": {"Aspergillus nidulans": {"test_system": "Aspergillus nidulans", "assay": "Antifungal activity against Aspergillus nidulans ATCC 38163 measured after 48 hrs by CLSI M38-A2 protocol based method", "assay_type": "functional", "conditions": "ATCC 38163, 48 h"}, "[1]": {"assay": "Selectivity index, ratio of compound concentration showing <20 to <30% hemolysis in mouse RBC to MIC for fluconazole/ITC-resistant Candida albicans ATCC 10231", "assay_type": "toxicity", "conditions": "red blood cells (erythrocytes), read-out: Selectivity Index"}, "[2]": {"assay": "Hemolytic activity in mouse RBC at 62.5 ug/ml after 1 hr relative to control", "assay_type": "ADME, cell-based, Erythrocyte", "conditions": "red blood cells (erythrocytes), read-out: Activity"}, "Candida albicans [3]": {"test_system": "Candida albicans", "assay": "Antifungal activity against fluconazole/ITC-susceptible Candida albicans ATCC MYA-2876 measured after 48 hrs by CLSI M27-A3 protocol based method", "assay_type": "functional", "conditions": "ATCC MYA-2876, 48 h"}, "[4]": {"assay": "Hemolytic activity in mouse RBC at […] ug/ml after 1 hr relative to control", "assay_type": "ADME, cell-based, Erythrocyte", "conditions": "red blood cells (erythrocytes), read-out: Activity"}, "[5]": {"assay": "Selectivity index, ratio of compound concentration showing <20 to <30% hemolysis in mouse RBC to MIC for fluconazole/ITC-susceptible Candida albicans ATCC MYA-2310", "assay_type": "toxicity", "conditions": "mouse red blood cells (RBC), read-out: Selectivity Index"}, "[6]": {"assay": "Selectivity index, ratio of CC50 for human A549 cells to MIC for fluconazole/ITC-resistant Candida albicans ATCC 64124", "assay_type": "toxicity", "conditions": "read-out: Selectivity Index"}, "Staphylococcus aureus": {"test_system": "Staphylococcus aureus", "assay": "Antibacterial activity against methicillin-resistant Staphylococcus aureus", "assay_type": "functional, organism-based"}, "[7]": {"assay": "Selectivity index, ratio of CC50 for human A549 cells to MIC for Aspergillus terreus ATCC MYA-3633", "assay_type": "toxicity", "conditions": "read-out: Selectivity Index"}, "Candida albicans [8]": {"test_system": "Candida albicans", "assay": "Antifungal activity against fluconazole/ITC-resistant Candida albicans ATCC MYA-1237 measured after 48 hrs by CLSI M27-A3 protocol based method", "assay_type": "functional", "conditions": "ATCC MYA-1237, 48 h"}, "Pichia kudriavzevii": {"test_system": "Pichia kudriavzevii", "assay": "Antifungal activity against Candida krusei ATCC 6258 measured after 48 hrs by CLSI M27-A3 protocol based method", "assay_type": "functional", "conditions": "ATCC 6258, 48 h"}, "Listeria monocytogenes": {"test_system": "Listeria monocytogenes", "assay": "Antibacterial activity against Listeria monocytogenes", "assay_type": "functional, organism-based"}, "[9]": {"assay": "Selectivity index, ratio of compound concentration showing <20 to <30% hemolysis in mouse RBC to MIC for Candida glabrata ATCC 2001", "assay_type": "toxicity", "conditions": "mouse red blood cells (RBC), read-out: Selectivity Index"}, "Candida albicans [10]": {"test_system": "Candida albicans", "assay": "Antibiofilm activity against fluconazole/ITC-resistant Candida albicans ATCC 10231 assessed as reduction in sessile growth after 24 hrs by XTT assay", "assay_type": "functional", "conditions": "ATCC 10231, 24 h"}, "[11]": {"assay": "Selectivity index, ratio of CC50 for human A549 cells to MIC for fluconazole/ITC-susceptible Candida albicans ATCC MYA-2876", "assay_type": "toxicity", "conditions": "read-out: Selectivity Index"}, "Enterococcus": {"test_system": "Enterococcus", "assay": "Antibacterial activity against vancomycin-resistant Enterococcus", "assay_type": "functional, organism-based"}, "[12]": {"assay": "Selectivity index, ratio of CC50 for human A549 cells to MIC for fluconazole/ITC-susceptible Candida albicans ATCC MYA-2310", "assay_type": "toxicity", "conditions": "read-out: Selectivity Index"}, "Candida albicans [13]": {"test_system": "Candida albicans", "assay": "Fungicidal activity against fluconazole/ITC-resistant Candida albicans ATCC 64124 assessed as reduction in fungal growth at 0.5 to 2 times MIC incubated for 24 hrs followed by replating on PDA plates measured after 48 hrs Time-Kill assay", "assay_type": "functional, organism-based"}, "Candida albicans [14]": {"test_system": "Candida albicans", "assay": "Antifungal activity against fluconazole/ITC-resistant Candida albicans ATCC 64124 measured after 48 hrs by CLSI M27-A3 protocol based method", "assay_type": "functional", "conditions": "ATCC 64124, 48 h"}, "Candida albicans [15]": {"test_system": "Candida albicans", "assay": "Antifungal activity against fluconazole/ITC-resistant Candida albicans ATCC 10231 measured after 48 hrs by CLSI M27-A3 protocol based method", "assay_type": "functional", "conditions": "ATCC 10231, 48 h"}, "[16]": {"assay": "Hemolytic activity in mouse RBC at 31.3 ug/ml after 1 hr relative to control", "assay_type": "ADME, cell-based, Erythrocyte", "conditions": "red blood cells (erythrocytes), read-out: Activity"}, "[17]": {"assay": "Selectivity index, ratio of compound concentration showing <20 to <30% hemolysis in mouse RBC to MIC for Aspergillus flavus ATCC MYA-3631", "assay_type": "toxicity", "conditions": "mouse red blood cells (RBC), read-out: Selectivity Index"}, "[18]": {"assay": "Hemolytic activity in mouse RBC at […] after 1 hr relative to control; note: tested at 0.48 µg/mL", "assay_type": "ADME, cell-based, Erythrocyte", "conditions": "red blood cells (erythrocytes), read-out: Activity"}, "Candida albicans [19]": {"test_system": "Candida albicans", "assay": "Selectivity ratio of MIC90 for antibiofilm activity against fluconazole/ITC-resistant Candida albicans ATCC 64124 assessed as reduction in sessile growth to MIC for fluconazole/ITC-resistant Candida albicans ATCC 64124", "assay_type": "functional"}, "[20]": {"assay": "Selectivity index, ratio of compound concentration showing <20 to <30% hemolysis in mouse RBC to MIC for fluconazole/ITC-susceptible Candida albicans ATCC MYA-2876", "assay_type": "toxicity", "conditions": "red blood cells (erythrocytes), read-out: Selectivity Index"}, "Candida albicans [21]": {"test_system": "Candida albicans", "assay": "Selectivity ratio of MIC50 for antibiofilm activity against fluconazole/ITC-resistant Candida albicans ATCC 64124 assessed as reduction in sessile growth to MIC for fluconazole/ITC-resistant Candida albicans ATCC 64124", "assay_type": "functional"}, "[22]": {"assay": "Selectivity index, ratio of compound concentration showing <20 to <30% hemolysis in mouse RBC to MIC for Candida parapsilosis ATCC 22019", "assay_type": "toxicity", "conditions": "mouse red blood cells (RBC), read-out: Selectivity Index"}, "[23]": {"assay": "Selectivity index, ratio of CC50 for human A549 cells to MIC for Aspergillus flavus ATCC MYA-3631", "assay_type": "toxicity", "conditions": "read-out: Selectivity Index"}, "[24]": {"assay": "Selectivity index, ratio of CC50 for human A549 cells to MIC for fluconazole/ITC-resistant Candida albicans ATCC 90819", "assay_type": "toxicity", "conditions": "read-out: Selectivity Index"}, "[25]": {"assay": "Selectivity index, ratio of CC50 for human A549 cells to MIC for fluconazole/ITC-resistant Candida albicans ATCC MYA-1003", "assay_type": "toxicity", "conditions": "read-out: Selectivity Index"}, "Candida albicans [26]": {"test_system": "Candida albicans", "assay": "Antibiofilm activity against fluconazole/ITC-resistant Candida albicans ATCC 64124 assessed as reduction in sessile growth after 24 hrs by XTT assay", "assay_type": "functional", "conditions": "ATCC 64124, 24 h"}, "BEAS-2B": {"test_system": "BEAS-2B", "assay": "Cytotoxicity against human BEAS2B cells after 24 hrs by resazurin based assay", "assay_type": "cell-based"}, "A549": {"test_system": "A549", "assay": "Cytotoxicity against human A549 cells after 24 hrs by resazurin based assay", "assay_type": "cell-based", "conditions": "a549, 24 h"}, "[27]": {"assay": "Selectivity index, ratio of CC50 for human A549 cells to MIC for Candida krusei ATCC 6258", "assay_type": "toxicity", "conditions": "read-out: Selectivity Index"}, "Candida albicans [28]": {"test_system": "Candida albicans", "assay": "Selectivity ratio of MIC90 for antibiofilm activity against fluconazole/ITC-resistant Candida albicans ATCC 10231 assessed as reduction in sessile growth to MIC for fluconazole/ITC-resistant Candida albicans ATCC 10231", "assay_type": "functional"}, "[29]": {"biological_target": "Voltage-gated inwardly rectifying potassium channel KCNH2 (Homo sapiens, UniProt Q12809)", "sequence (Q12809 whole entry)": "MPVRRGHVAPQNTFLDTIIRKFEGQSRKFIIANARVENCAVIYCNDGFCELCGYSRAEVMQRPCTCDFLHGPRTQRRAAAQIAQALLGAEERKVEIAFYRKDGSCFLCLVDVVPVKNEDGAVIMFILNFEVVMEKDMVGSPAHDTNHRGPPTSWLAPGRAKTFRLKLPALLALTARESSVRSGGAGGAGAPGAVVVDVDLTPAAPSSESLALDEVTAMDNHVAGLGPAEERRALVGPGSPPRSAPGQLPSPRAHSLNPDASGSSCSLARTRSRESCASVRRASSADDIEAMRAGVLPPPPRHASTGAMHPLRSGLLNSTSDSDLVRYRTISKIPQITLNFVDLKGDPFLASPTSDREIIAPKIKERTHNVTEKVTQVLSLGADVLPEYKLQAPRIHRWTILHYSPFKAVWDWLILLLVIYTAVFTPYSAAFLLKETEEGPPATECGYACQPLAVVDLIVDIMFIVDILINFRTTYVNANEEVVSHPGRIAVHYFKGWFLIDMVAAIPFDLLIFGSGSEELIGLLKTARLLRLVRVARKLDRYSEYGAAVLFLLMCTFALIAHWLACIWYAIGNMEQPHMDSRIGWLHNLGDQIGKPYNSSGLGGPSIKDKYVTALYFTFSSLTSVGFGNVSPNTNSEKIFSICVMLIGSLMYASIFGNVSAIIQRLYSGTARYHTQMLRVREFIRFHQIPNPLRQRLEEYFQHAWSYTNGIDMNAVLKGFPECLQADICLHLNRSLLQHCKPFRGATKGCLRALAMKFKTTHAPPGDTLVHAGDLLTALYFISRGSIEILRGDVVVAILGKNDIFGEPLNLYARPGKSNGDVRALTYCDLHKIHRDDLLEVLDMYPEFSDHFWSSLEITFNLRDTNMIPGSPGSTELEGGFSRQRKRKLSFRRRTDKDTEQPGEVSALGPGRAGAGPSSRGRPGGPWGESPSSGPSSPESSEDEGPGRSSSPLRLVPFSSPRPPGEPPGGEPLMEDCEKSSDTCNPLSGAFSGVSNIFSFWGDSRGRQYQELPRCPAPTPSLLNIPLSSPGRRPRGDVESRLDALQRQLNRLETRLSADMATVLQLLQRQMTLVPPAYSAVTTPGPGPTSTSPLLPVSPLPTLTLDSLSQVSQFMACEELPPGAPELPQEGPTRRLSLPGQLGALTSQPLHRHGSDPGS", "assay": "Inhibition of [3H]-dofetilide binding to human ERG expressed in HEK293 cell membranes measured after 1 hr by liquid scintillation counting method"}, "[30]": {"assay": "Selectivity index, ratio of CC50 for human A549 cells to MIC for Candida glabrata ATCC 2001", "assay_type": "toxicity", "conditions": "read-out: Selectivity Index"}, "[31]": {"assay": "Hemolytic activity in mouse RBC at 3.9 ug/ml after 1 hr relative to control", "assay_type": "ADME, cell-based, Erythrocyte", "conditions": "red blood cells (erythrocytes), read-out: Activity"}, "Nakaseomyces glabratus": {"test_system": "Nakaseomyces glabratus", "assay": "Antifungal activity against Candida glabrata ATCC 2001 measured after 48 hrs by CLSI M27-A3 protocol based method", "assay_type": "functional", "conditions": "CBS 138, 48 h"}, "[32]": {"assay": "Selectivity index, ratio of CC50 for human A549 cells to MIC for fluconazole/ITC-resistant Candida albicans ATCC 10231", "assay_type": "toxicity", "conditions": "read-out: Selectivity Index"}}, "note": "The source made the active and inactive calls. No cut-off for these calls is given here.", "data": [{"smiles": "C/C(=N\\Nc1ccc(F)cc1)c1ccc(-c2ccc(/C(C)=N/Nc3ccc(F)cc3)cc2)cc1", "values": [{"measurement": "MIC", "setting": "Aspergillus nidulans", "value": 7.8, "unit": "µg/mL"}, {"measurement": "selectivity ratio", "setting": "[1]", "value": "1 to 32"}, {"measurement": "hemolysis at 1 h, 62.5 ug/ml", "setting": "[2]", "value": 26.2, "unit": "%"}, {"measurement": "MIC", "setting": "Candida albicans [3]", "value": 3.9, "unit": "µg/mL"}, {"measurement": "hemolysis at 1 h, 15.6 ug/ml", "setting": "[4]; at 15.6 µg/mL", "value": 7.4, "unit": "%"}, {"measurement": "hemolysis at 1 h, 0.975 ug/ml", "setting": "[4]", "value": 1.4, "unit": "%"}, {"measurement": "selectivity ratio", "setting": "[5]", "value": "1 to 32"}, {"measurement": "selectivity ratio", "setting": "[6]", "value": 4.3}, {"measurement": "Activity", "setting": "Staphylococcus aureus", "value": "inactive"}, {"measurement": "selectivity ratio", "setting": "[7]", "value": 0.5}, {"measurement": "MIC", "setting": "Candida albicans [8]", "value": 7.8, "unit": "µg/mL"}, {"measurement": "MIC", "setting": "Pichia kudriavzevii", "value": 1.95, "unit": "µg/mL"}, {"measurement": "Activity", "setting": "Listeria monocytogenes", "value": "inactive"}, {"measurement": "selectivity ratio", "setting": "[9]", "value": "1 to 32"}, {"measurement": "MIC50", "setting": "Candida albicans [10]", "value": 8, "unit": "µg/mL"}, {"measurement": "MIC90", "setting": "Candida albicans [10]", "value": "> 32", "unit": "µg/mL"}, {"measurement": "selectivity ratio", "setting": "[11]", "value": 4.3}, {"measurement": "Activity", "setting": "Enterococcus", "value": "inactive"}, {"measurement": "selectivity ratio", "setting": "[12]", "value": 8.5}, {"measurement": "Activity", "setting": "Candida albicans [13]", "value": "Active"}, {"measurement": "MIC", "setting": "Candida albicans [14]", "value": 3.9, "unit": "µg/mL"}, {"measurement": "MIC", "setting": "Candida albicans [15]", "value": 1.95, "unit": "µg/mL"}, {"measurement": "hemolysis at 1 h, 31.3 ug/ml", "setting": "[16]", "value": 9.5, "unit": "%"}, {"measurement": "selectivity ratio", "setting": "[17]", "value": "1 to 32"}, {"measurement": "hemolysis at 1 h, […]", "setting": "[18]", "value": 0, "unit": "%"}, {"measurement": "selectivity ratio", "setting": "Candida albicans [19]", "value": 8}, {"measurement": "selectivity ratio", "setting": "[20]", "value": "1 to 32"}, {"measurement": "selectivity ratio", "setting": "Candida albicans [21]", "value": 4}, {"measurement": "selectivity ratio", "setting": "[22]", "value": "1 to 32"}, {"measurement": "selectivity ratio", "setting": "[23]", "value": 0.5}, {"measurement": "selectivity ratio", "setting": "[24]", "value": 2.1}, {"measurement": "selectivity ratio", "setting": "[25]", "value": 2.1}, {"measurement": "MIC50", "setting": "Candida albicans [26]", "value": 16, "unit": "µg/mL"}, {"measurement": "MIC90", "setting": "Candida albicans [26]", "value": "> 32", "unit": "µg/mL"}, {"measurement": "CC50", "setting": "BEAS-2B", "value": 10.7, "unit": "µg/mL"}, {"measurement": "CC50", "setting": "A549", "value": 16.6, "unit": "µg/mL"}, {"measurement": "selectivity ratio", "setting": "[27]", "value": 8.5}, {"measurement": "selectivity ratio", "setting": "Candida albicans [28]", "value": 16}, {"measurement": "IC50", "setting": "[29]", "value": "> 30", "unit": "µM"}, {"measurement": "selectivity ratio", "setting": "[30]", "value": 1.1}, {"measurement": "hemolysis at 1 h, 3.9 ug/ml", "setting": "[31]", "value": 2.6, "unit": "%"}, {"measurement": "MIC", "setting": "Nakaseomyces glabratus", "value": 15.6, "unit": "µg/mL"}, {"measurement": "selectivity ratio", "setting": "[32]", "value": 8.5}]}]}
